In patent US20190054117A1, “DIMERIZATION SWITCHES AND USES THEREOF” (priority 2014, published 2019):

Molecular target: biotinylated FKBP in the presence of everolimus (RAD001)
Experiment: EC50 direct binding assay (AlphaLISA): FLAG FRB protein and biotinylated FKBP with serially diluted everolimus
Conditions: 30 nM FLAG-tagged FRB, 30 nM biotinylated FKBP; everolimus serial diluted 1:3 from 600 nM
Procedure: In a direct binding assay, unlabeled candidate mutant FRB is incubated in solution with tagged wild-type FKBP in the presence of the dimerization molecule, e.g., under conditions suitable for binding of FRB to the dimerization molecule and dimerization of FRB and FKBP. Tagged FKBP can be removed from the reaction by affinity purification; candidate mutant FRB that is able to bind the dimerization molecule and dimerize with the tagged FKBP will also be removed. […] EC50 values for direct binding affinity can then be calculated using methods known in the art.
FRB mutations were also ranked in an alternative assay format. Briefly, FRB proteins incorporating single and double mutations (SEQ ID NO: 54-58) were produced as FLAG tagged constructs in E. coli as described previously. 30 nM (final) of biotinylated FKBP (SEQ ID NO: 59) and each FLAG FRB protein were combined in the presence of everolimus serial diluted 1:3 from a starting final concentration of 600 nM into a 96 well ½ surface flat-bottom plate (PerkinElmer) and incubated for one hour at room temperature. All dilutions were made in 1× AlphaLISA Immunoassay buffer (PerkinElmer). Anti-Flag acceptor beads (PerkinElmer) were added at 10 ug/ml final concentration and incubated for one hour at room temperature. Streptavidin donor beads (PerkinElmer), were then added at a final concentration of 40 ug/ml and the plate was protected from light and incubated for 30 minutes at room temperature. The plate was then read on the PerkinElmer EnVision Multiplate reader equipped with the Alpha Module using excitation of 680 nm and a 570 nm Emission filter.

biotinylated FKBP in the presence of everolimus (RAD001), sequence (P62942 2-108 limits assumed): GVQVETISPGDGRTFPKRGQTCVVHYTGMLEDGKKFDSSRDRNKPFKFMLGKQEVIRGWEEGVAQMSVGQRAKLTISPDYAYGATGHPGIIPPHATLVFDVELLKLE

Row | EC50 [nM] | Substance
1 | 2.46 | E2032I: mutant FRB derived switch domain with E2032I; His-tagged (competition) or His-FLAG-tagged (direct assay)
2 | 2.15 | E2032L: mutant FRB derived switch domain with E2032L; His-tagged (competition) or His-FLAG-tagged (direct assay)
3 | 1.44 | T2098L: mutant FRB derived switch domain with T2098L; His-tagged (competition) or His-FLAG-tagged (direct assay)
4 | 3.9 | Wild type FRB (1): wild type FRB domain of FRAP/mTOR (residues 2021-2113); His-tagged in competition assay, His-FLAG-tagged in direct assay [reference compound]
